{
  "source": "paper PMC5458078",
  "about": "“Global mapping of CARM1 substrates defines enzyme specificity and substrate recognition” (Nature Communications, 2017)",
  "key": {"[1]": {"test_system": "MCF7 CARM1 KO cells", "assay": "Quantitative MS of ADMA-containing peptides in MCF7 CARM1 KO cells expressing CARM1 28-608 or CARM1 140-608, and in CARM1 KO", "format": "cell-based, human"}, "[2]": {"test_system": "MCF7 cells", "assay": "Quantitative nanoLC-MS/MS (TMT) of ADMA-containing peptides, CARM1 KO vs parental", "format": "cell-based, human", "parameters": "Fold change KO/WT: scale not given here"}, "[3]": {"settings": "mean, CARM1 140-608 versus WT (log2 scale)"}, "[4]": {"settings": "mean, CARM1 KO versus WT (log2 scale)"}, "[5]": {"settings": "MCF7, CARM1 knockout vs wild type, n = 3 each"}, "[6]": {"settings": "ADMA-containing peptide, MCF7, CARM1 knockout (KO1-3) vs wild type (WT1-3), TMT 6-plex experiment #1"}, "[7]": {"settings": "ratio on log2 scale, mean of 3 replicates"}, "[8]": {"settings": "MCF7, CARM1 KO vs WT, three biological replicates each"}, "[9]": {"settings": "CARM1 140-608 versus WT, mean of three replicates (log2)"}, "[10]": {"settings": "KO versus WT, mean of three replicates (log2)"}, "[11]": {"settings": "ADMA-containing peptide, CARM1 knockout (KO) vs wild type (WT) MCF7 cells, 6-plex TMT experiment #1, three biological replicates each, sheet \"MCF7\""}, "[12]": {"settings": "MCF7, CARM1 KO (KO1-KO3) vs wild type (WT1-WT3)"}, "[13]": {"settings": "CARM1 140-608 versus WT, difference of mean log2 values"}, "[14]": {"settings": "CARM1 KO versus WT, difference of mean log2 values"}, "[15]": {"settings": "MCF7 CARM1 knockout vs wild type, 3 biological replicates each, values are on log2 scale"}},
  "note": "Read-outs that look alike come from different tables or passages of the source.",
  "data": [
    {"substance": "LFIGGLSFETTDDSLr", "values": [
      {"measurement": "CARM1 140-608/WT", "setting": "[1]; [3]", "value": -0.1871},
      {"measurement": "KO/WT", "setting": "[1]; [4]", "value": 0.1666},
      {"measurement": "Fold change KO/WT", "setting": "[2]; [5]", "value": -0.1032}
    ]},
    {"substance": "LGHDAYrLGQDPYR", "values": [
      {"measurement": "CARM1 140-608/WT", "setting": "[1]", "value": -1.007},
      {"measurement": "KO/WT", "setting": "[1]", "value": -1.081},
      {"measurement": "Fold change KO/WT", "setting": "[2]; [6]", "value": -1.081}
    ]},
    {"substance": "LGHDAYrLGQDPYrLGHDPYR", "values": [
      {"measurement": "CARM1 140-608/WT", "setting": "[1]", "value": -1.958},
      {"measurement": "KO/WT", "setting": "[1]", "value": -1.784},
      {"measurement": "Fold change KO/WT", "setting": "[2]; [6]", "value": -1.784}
    ]},
    {"substance": "LGHDPYrLGHDAYrLGQDPYrLGHDPYR", "values": [
      {"measurement": "CARM1 140-608/WT", "setting": "[1]", "value": -1.775},
      {"measurement": "KO/WT", "setting": "[1]", "value": -1.602},
      {"measurement": "Fold change KO/WT", "setting": "[2]; [6]", "value": -1.602}
    ]},
    {"substance": "LGQDPYrLGHDPYR", "values": [
      {"measurement": "CARM1 140-608/WT", "setting": "[1]", "value": -1.933},
      {"measurement": "KO/WT", "setting": "[1]", "value": -1.973},
      {"measurement": "Fold change KO/WT", "setting": "[2]; [6]", "value": -1.973}
    ]},
    {"substance": "LGRPIGALArGAIGGR", "values": [
      {"measurement": "CARM1 140-608/WT", "setting": "[1]; [7]", "value": 0.09518},
      {"measurement": "KO/WT", "setting": "[1]; [7]", "value": 1.211},
      {"measurement": "Fold change KO/WT", "setting": "[2]; [8]", "value": 0.325}
    ]},
    {"substance": "LGrLLGIFEQNQDRKHR", "values": [
      {"measurement": "CARM1 140-608/WT", "setting": "[1]; [9]", "value": -0.3444},
      {"measurement": "KO/WT", "setting": "[1]; [10]", "value": -0.4775},
      {"measurement": "Fold change KO/WT", "setting": "[2]; [11]", "value": -0.4775}
    ]},
    {"substance": "LHPQLHrAPIR", "values": [
      {"measurement": "CARM1 140-608/WT", "setting": "[1]; [9]", "value": -0.07051},
      {"measurement": "KO/WT", "setting": "[1]; [10]", "value": 1.076},
      {"measurement": "Fold change KO/WT", "setting": "[2]; [11]", "value": 1.076}
    ]},
    {"substance": "LHrSPLTFPAWVrPPEAAR", "values": [
      {"measurement": "CARM1 140-608/WT", "setting": "[1]; [7]", "value": -1.436},
      {"measurement": "KO/WT", "setting": "[1]; [7]", "value": -1.489},
      {"measurement": "Fold change KO/WT", "setting": "[2]; [5]", "value": -1.489}
    ]},
    {"substance": "LIAAAQSGLPVrIESIK", "values": [
      {"measurement": "CARM1 140-608/WT", "setting": "[1]; CARM1 140-608 vs WT, mean of 3 replicates (log2 scale)", "value": -0.3613},
      {"measurement": "KO/WT", "setting": "[1]; KO vs WT, mean of 3 replicates (log2 scale)", "value": -0.4316},
      {"measurement": "Fold change KO/WT", "setting": "[2]; [12]", "value": -0.4316}
    ]},
    {"substance": "LINFQNHSPKPNGPVLPPHPQQLrYPPNQNIPR", "values": [
      {"measurement": "CARM1 140-608/WT", "setting": "[1]; [13]", "value": 0.3327},
      {"measurement": "KO/WT", "setting": "[1]; [14]", "value": 0.1723},
      {"measurement": "Fold change KO/WT", "setting": "[2]; [6]", "value": 0.6311}
    ]},
    {"substance": "LINFQNHSPKPNGPVLPPHPQQLrYPPNQNIPrQAIKPNPLQMAFLAQQAIK", "values": [
      {"measurement": "CARM1 140-608/WT", "setting": "[1]; [13]", "value": 0.7941},
      {"measurement": "KO/WT", "setting": "[1]; [14]", "value": -2.136},
      {"measurement": "Fold change KO/WT", "setting": "[2]; [6]", "value": -2.471}
    ]},
    {"substance": "LITFQLrHILK", "values": [
      {"measurement": "CARM1 140-608/WT", "setting": "[1]; [13]", "value": -4.254},
      {"measurement": "KO/WT", "setting": "[1]; [14]", "value": -5.219},
      {"measurement": "Fold change KO/WT", "setting": "[2]; [6]", "value": -5.219}
    ]},
    {"substance": "LLALSGPGGGrGrGSLLLR", "values": [
      {"measurement": "CARM1 140-608/WT", "setting": "[1]; [9]", "value": -0.3383},
      {"measurement": "KO/WT", "setting": "[1]; [10]", "value": -0.09674},
      {"measurement": "Fold change KO/WT", "setting": "[2]; [11]", "value": 0.2339}
    ]},
    {"substance": "LLFQNLWKPrLNVP", "values": [
      {"measurement": "CARM1 140-608/WT", "setting": "[1]; [7]", "value": -1.893},
      {"measurement": "KO/WT", "setting": "[1]; [7]", "value": -4.858},
      {"measurement": "Fold change KO/WT", "setting": "[2]; [5]", "value": -4.157}
    ]},
    {"substance": "LLGQRPGPYDRPIGGrGGYYGAGR", "values": [
      {"measurement": "CARM1 140-608/WT", "setting": "[1]; [3]", "value": 0.09661},
      {"measurement": "KO/WT", "setting": "[1]; [4]", "value": 0.2187},
      {"measurement": "Fold change KO/WT", "setting": "[2]; [15]", "value": -0.08078}
    ]},
    {"substance": "LLGQRPGPYDRPIGGrGGYYGAGrGSMYDR", "values": [
      {"measurement": "CARM1 140-608/WT", "setting": "[1]; [3]", "value": -0.09536},
      {"measurement": "KO/WT", "setting": "[1]; [4]", "value": 1.04},
      {"measurement": "Fold change KO/WT", "setting": "[2]; [15]", "value": 0.5689}
    ]},
    {"substance": "LLPAPrAYLVPENFR", "values": [
      {"measurement": "CARM1 140-608/WT", "setting": "[1]; [13]", "value": -1.125},
      {"measurement": "KO/WT", "setting": "[1]; [14]", "value": -0.8691},
      {"measurement": "Fold change KO/WT", "setting": "[2]; CARM1 KO vs wild type MCF7 cells, 3 biological replicates each", "value": -0.8691}
    ]},
    {"substance": "LNASIAGLFPPQINIPLPPrPNLNR", "values": [
      {"measurement": "CARM1 140-608/WT", "setting": "[1]; [9]", "value": -1.542},
      {"measurement": "KO/WT", "setting": "[1]; [10]", "value": -2.454},
      {"measurement": "Fold change KO/WT", "setting": "[2]; [11]", "value": -2.4198}
    ]},
    {"substance": "LPGTPPLFSPPPrHHLDPHR", "values": [
      {"measurement": "CARM1 140-608/WT", "setting": "[1]; CARM1 140-608 vs WT, mean of 3 replicates, log2", "value": -1.232},
      {"measurement": "KO/WT", "setting": "[1]; KO vs WT, mean of 3 replicates, log2", "value": -1.196},
      {"measurement": "Fold change KO/WT", "setting": "[2]; [8]", "value": -1.221}
    ]},
    {"substance": "LQEVSLrQGMr", "values": [
      {"measurement": "CARM1 140-608/WT", "setting": "[1]; [7]", "value": 0.07113},
      {"measurement": "KO/WT", "setting": "[1]; [7]", "value": -0.8557},
      {"measurement": "Fold change KO/WT", "setting": "[2]; [8]", "value": -0.8557}
    ]},
    {"substance": "LQGLQGSGGrGGGLR", "values": [
      {"measurement": "CARM1 140-608/WT", "setting": "[1]; [3]", "value": 0.05748},
      {"measurement": "KO/WT", "setting": "[1]; [4]", "value": -0.4598},
      {"measurement": "Fold change KO/WT", "setting": "[2]; [15]", "value": -0.266}
    ]},
    {"substance": "LQGQQFLNQSrQALELK", "values": [
      {"measurement": "CARM1 140-608/WT", "setting": "[1]; [9]", "value": 0.6173},
      {"measurement": "KO/WT", "setting": "[1]; [10]", "value": -0.8589},
      {"measurement": "Fold change KO/WT", "setting": "[2]; [11]", "value": -1.9617}
    ]},
    {"substance": "LQLGTPPPLLAArLVPPR", "values": [
      {"measurement": "CARM1 140-608/WT", "setting": "[1]; [9]", "value": -3.287},
      {"measurement": "KO/WT", "setting": "[1]; [10]", "value": -5.072},
      {"measurement": "Fold change KO/WT", "setting": "[2]; [12]", "value": -2.7388}
    ]},
    {"substance": "LQNAFWEHGASrAMLPGSPLFTrAPPPK", "values": [
      {"measurement": "CARM1 140-608/WT", "setting": "[1]; [9]", "value": -1.727},
      {"measurement": "KO/WT", "setting": "[1]; [10]", "value": -2.217},
      {"measurement": "Fold change KO/WT", "setting": "[2]; [12]", "value": -2.217}
    ]},
    {"substance": "LRGPGGPrGGLGGGMR", "values": [
      {"measurement": "CARM1 140-608/WT", "setting": "[1]; [3]", "value": 0.5472},
      {"measurement": "KO/WT", "setting": "[1]; [4]", "value": 1.035},
      {"measurement": "Fold change KO/WT", "setting": "[2]; [5]", "value": -0.02725}
    ]}
  ]
}
